Reference: ChEMBL document CHEMBL1122993, “3-Alkyl-3-hydroxyglutaric acids: a new class of hypocholesterolemic HMG CoA reductase inhibitors. 1” (J Med Chem, 1985)

T1: 3-hydroxy-3-methylglutaryl-coenzyme A reductase (Rattus norvegicus) (UniProt P51639)
T1 sequence (whole entry): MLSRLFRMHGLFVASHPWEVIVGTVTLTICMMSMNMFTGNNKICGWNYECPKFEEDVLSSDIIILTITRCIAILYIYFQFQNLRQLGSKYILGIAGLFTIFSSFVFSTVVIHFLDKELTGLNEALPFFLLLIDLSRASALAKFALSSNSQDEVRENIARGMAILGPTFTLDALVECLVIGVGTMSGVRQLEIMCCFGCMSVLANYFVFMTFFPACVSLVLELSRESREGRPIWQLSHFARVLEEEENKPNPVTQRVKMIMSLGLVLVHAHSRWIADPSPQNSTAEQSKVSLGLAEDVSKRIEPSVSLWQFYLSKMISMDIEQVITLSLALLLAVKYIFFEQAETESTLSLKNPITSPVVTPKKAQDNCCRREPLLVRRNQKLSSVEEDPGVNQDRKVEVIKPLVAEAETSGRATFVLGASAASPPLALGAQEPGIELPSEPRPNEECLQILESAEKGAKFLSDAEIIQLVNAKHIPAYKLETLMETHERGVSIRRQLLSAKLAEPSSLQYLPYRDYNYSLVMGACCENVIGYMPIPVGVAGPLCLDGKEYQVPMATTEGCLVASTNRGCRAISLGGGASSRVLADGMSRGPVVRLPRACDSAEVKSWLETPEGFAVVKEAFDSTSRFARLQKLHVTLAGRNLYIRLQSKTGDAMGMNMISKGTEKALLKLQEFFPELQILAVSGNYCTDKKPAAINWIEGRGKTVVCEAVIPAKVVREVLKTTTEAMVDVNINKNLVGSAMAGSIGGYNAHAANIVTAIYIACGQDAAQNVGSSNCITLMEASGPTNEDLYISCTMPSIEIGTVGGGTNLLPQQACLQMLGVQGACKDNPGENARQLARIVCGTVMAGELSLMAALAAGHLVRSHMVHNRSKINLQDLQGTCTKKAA

T2: 3-hydroxy-3-methylglutaryl-coenzyme A reductase (Rattus norvegicus, UniProt P51639)
T2 sequence (P51639 whole entry): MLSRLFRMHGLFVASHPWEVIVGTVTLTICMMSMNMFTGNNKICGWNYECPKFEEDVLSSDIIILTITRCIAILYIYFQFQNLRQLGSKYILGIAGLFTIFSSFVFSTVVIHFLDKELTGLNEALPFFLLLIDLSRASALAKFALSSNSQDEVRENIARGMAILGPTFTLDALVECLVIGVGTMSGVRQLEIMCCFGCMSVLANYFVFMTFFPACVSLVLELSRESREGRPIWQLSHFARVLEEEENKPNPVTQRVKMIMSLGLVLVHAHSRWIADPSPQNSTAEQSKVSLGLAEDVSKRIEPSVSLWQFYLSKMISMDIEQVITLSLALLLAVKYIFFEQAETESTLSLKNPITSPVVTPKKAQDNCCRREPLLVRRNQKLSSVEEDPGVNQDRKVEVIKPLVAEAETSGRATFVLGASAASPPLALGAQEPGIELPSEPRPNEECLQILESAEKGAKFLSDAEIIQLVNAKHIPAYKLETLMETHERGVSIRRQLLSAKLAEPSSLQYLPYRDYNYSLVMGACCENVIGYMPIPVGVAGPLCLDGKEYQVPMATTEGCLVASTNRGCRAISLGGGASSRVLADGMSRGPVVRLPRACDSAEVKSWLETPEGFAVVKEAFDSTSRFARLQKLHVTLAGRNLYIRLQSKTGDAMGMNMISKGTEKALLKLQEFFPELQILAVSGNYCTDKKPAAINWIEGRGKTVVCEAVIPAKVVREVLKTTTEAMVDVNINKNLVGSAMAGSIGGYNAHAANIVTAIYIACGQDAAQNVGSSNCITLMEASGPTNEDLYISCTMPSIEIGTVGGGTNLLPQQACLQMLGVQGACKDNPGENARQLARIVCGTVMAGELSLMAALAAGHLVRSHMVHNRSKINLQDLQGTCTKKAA


How the values were obtained:
[1] = target: T1, 3-hydroxy-3-methylglutaryl-coenzyme A reductase (Rattus norvegicus); assay: In vitro inhibition of rat liver HMG-CoA reductase at concentration of 10e-3 M
Rattus norvegicus [2] = assay: Percent reduction of Serum Cholesterol in Triton-treated rat at dose 80 mg/kg by intragastric administration; format: functional
Rattus norvegicus [3] = assay: Percent reduction of Serum Cholesterol in Triton-treated rat at dose 50 mg/kg by intragastric administration; format: functional
Rattus norvegicus [4] = assay: Percent reduction of HMGR activity in diazasterol-treated rat at dose 10 mg/kg by intragastric administration; format: functional
Rattus norvegicus [5] = assay: Percent reduction of Serum Cholesterol in Triton-treated rat at dose 300 mg/kg by intragastric administration (p<0.01); format: functional
Rattus norvegicus [6] = assay: Percent reduction of Serum Cholesterol in Triton-treated rat at dose 100 mg/kg by intragastric administration (p<0.01); format: functional
Rattus norvegicus [7] = assay: Percent reduction of Serum Cholesterol in Triton-treated rat at dose 200 mg/kg by intragastric administration (p<0.01); format: functional
Rattus norvegicus [8] = assay: Percent reduction of HMGR activity in diazasterol-treated rat at dose 20 mg/kg by intragastric administration (p<0.05); format: functional
Rattus norvegicus [9] = assay: Percent reduction of HMGR activity in diazasterol-treated rat at dose 100 mg/kg by intragastric administration (p<0.05); format: functional
[10] = target: T2, 3-hydroxy-3-methylglutaryl-coenzyme A reductase; assay: Inhibition of HMG-CoA reductase from rat liver
Rattus norvegicus [11] = assay: Percent reduction of HMGR activity in diazasterol-treated rat at dose 50 mg/kg by intragastric administration (p<0.05); format: functional
[12] = substrate: CCCCCCCCCCCCCCCC(O)(CC(=O)O)CC(=O)O
Description: Competitive inhibition of HMG-CoA reductase

Molecule | inhibition [1] [%] | other results
CCCCCCCCCCCCCCC/C(=C\C(=O)O)CC(=O)O | 0 | –
CC[C@H](C)C(=O)O[C@H]1CCC=C2C=C[C@H](C)[C@H](CC[C@@H]3C[C@@H](O)CC(=O)O3)[C@H]21 [MEVASTATIN] | – | Reduction (Rattus norvegicus [2]): 28%; Reduction (Rattus norvegicus [3]): 17%; Reduction (Rattus norvegicus [4]): 60%
CCCCCCCCCCCCCCCC(O)(CC(=O)O)CC(=O)OCCN(C)C (stereo not given) | 0 | –
CC1(O)CC(=O)OC(=O)C1 | 0 | –
CCCCCCCCCCC(O)(CCO)CCO | 0 | –
CCOC(=O)CC(C)(O)CC(=O)OCC | 0 | –
CCCCCCCCCCCCCCCCCCCC(O)(CC(=O)O)CC(=O)O | 86 | IC50 [10]: 350 µM
CC(O)(CC(=O)O)CC(=O)O | 0 | –
CCCCCCCCCCCCCCCC(O)(CCO)CCO | 0 | –
CCCCCCCCCCCCCCCC(O)(CC(=O)OCC)CC(=O)OCC | – | Reduction (Rattus norvegicus [7]): 3%
CCCCCCC(O)(CC(=O)O)CC(=O)O | 5 | –
3-hydroxy-3-methylglutaryl-coenzyme A reductase (Rattus norvegicus), P51639 (protein) MLSRLFRMHGLFVASHPWEVIVGTVTLTICMMSMNMFTGNNKICGWNYECPKFEEDVLSSDIIILTITRCIAILYIYFQFQNLRQLGSKYILGIAGLFTIFSSFVFSTVVIHFLDKELTGLNEALPFFLLLIDLSRASALAKFALSSNSQDEVRENIARGMAILGPTFTLDALVECLVIGVGTMSGVRQLEIMCCFGCMSVLANYFVFMTFFPACVSLVLELSRESREGRPIWQLSHFARVLEEEENKPNPVTQRVKMIMSLGLVLVHAHSRWIADPSPQNSTAEQSKVSLGLAEDVSKRIEPSVSLWQFYLSKMISMDIEQVITLSLALLLAVKYIFFEQAETESTLSLKNPITSPVVTPKKAQDNCCRREPLLVRRNQKLSSVEEDPGVNQDRKVEVIKPLVAEAETSGRATFVLGASAASPPLALGAQEPGIELPSEPRPNEECLQILESAEKGAKFLSDAEIIQLVNAKHIPAYKLETLMETHERGVSIRRQLLSAKLAEPSSLQYLPYRDYNYSLVMGACCENVIGYMPIPVGVAGPLCLDGKEYQVPMATTEGCLVASTNRGCRAISLGGGASSRVLADGMSRGPVVRLPRACDSAEVKSWLETPEGFAVVKEAFDSTSRFARLQKLHVTLAGRNLYIRLQSKTGDAMGMNMISKGTEKALLKLQEFFPELQILAVSGNYCTDKKPAAINWIEGRGKTVVCEAVIPAKVVREVLKTTTEAMVDVNINKNLVGSAMAGSIGGYNAHAANIVTAIYIACGQDAAQNVGSSNCITLMEASGPTNEDLYISCTMPSIEIGTVGGGTNLLPQQACLQMLGVQGACKDNPGENARQLARIVCGTVMAGELSLMAALAAGHLVRSHMVHNRSKINLQDLQGTCTKKAA | – | Km [12]: 8 µM

Continued, in another order:

inhibition [1] [%] | Molecule | other results
0 | COC(=O)CC(C)(O)CC(N)=O (stereo not given) | –
1 | CCCCCCCCCCCCCCCC(O)(CC(=O)OC)CC(=O)OC | Reduction (Rattus norvegicus [5]): 2%; Reduction (Rattus norvegicus [6]): 4%; Reduction (Rattus norvegicus [7]): 4%
99 | CCCCCCCCCCCCCCCC(O)(CC(=O)O)CC(=O)O | Reduction (Rattus norvegicus [8]): 27%; Reduction (Rattus norvegicus [9]): 40%; IC50 [10]: 50 µM; Reduction (Rattus norvegicus [5]): 22%; Reduction (Rattus norvegicus [6]): 4%; Reduction (Rattus norvegicus [7]): 17%; Reduction (Rattus norvegicus [11]): 31%
57 | CCCCCCCCCCC1(O)CCOC(=O)C1 (stereo not given) | –
50 | CC1(O)CC(=O)NC(=O)C1 | –
9 | CCCCCCCCCCCCCCCC1(OC(C)=O)CC(=O)OC(=O)C1 | –
37 | CCCC(O)(CC(=O)O)CC(=O)O | –
29 | CCC(O)(CC(=O)O)CC(=O)O | –
0 | CCCCCCCCCCC(O)(CC(=O)OCC)CC(=O)OCC | –
10 | CC(C)C(O)(CC(=O)O)CC(=O)O | –
